Experimental data published in US20020013373A1, “Methods and compositions for treatment of asthma” (priority 1997, published 2002).
Where two headings read alike, the source gives them in different places.

Assays:
[1] = system: allergic sheep; details: for inhibition of ABR: FIG. 6
Protocol: Five allergic sheep, with previously documented acute bronchoconstrictor response to Ascaris suum antigen, were used for all studies. The sheep were intubated with a cuffed nasotracheal tube and pulmonary airflow resistance (RL) was measured by the esophageal balloon catheter technique, while thoracic gas volume was measured by body plethysmography. Data was expressed as specific resistance, SRL. SRL is defined as RL times thoracic gas volume (Vtg).
The normal reaction of the sheep to the antigen from Ascaris suum is measured. After full recovery and a two week rest period, the sheep again undergo repeat antigen challenge, but this time only after treatment with D-propranolol.
The SRL of the acute responder sheep was measured prior to any treatment (baseline). The normal response of the sheep to antigen challenge by Ascaris suum antigen was measured (Open circles). […] One hour after D-propranolol was administered, the sheep were challenged with Ascaris suum antigen by inhalation. The SRL was measured immediately after antigen challenge (AG0).
Specific lung resistance (SRL) was measured in 11 allergic sheep, of which six sheep were acute responders and five sheep were dual responders, before and serially after challenge with Ascaris suum antigen, without and after pretreatment with D- or L-propranolol. The propranolol was administered either in an inhaled dose or an oral dose.

[2] = system: allergic sheep; experiment: Antigen-induced airway hyperresponsiveness (AHR), PD400 of carbachol, dual responder sheep; assay type: in vivo; details: dual responders
Protocol: (§1) To assess the normal or baseline airway responsiveness of the sheep, cumulative dose response curves to inhaled carbochol were performed. The SRL of each sheep was measured before and after inhalation of a buffered saline solution and after each administration of 10 breaths of increasing concentrations of carbachol (0.25, 0.5, 1.0, 2.0 and 4.0% wt/vol solution). Airway responsiveness was defined by determination of the cumulative provocation dose (PD400) of carbachol (in breath units) that increased SRL to 400% above baseline. One breath unit was defined as one breath of 1% carbachol solution.
(§2) The following experiments used inhaled D- or L-propranolol. AHR was estimated at 2 hours (acute) or 24 hours (dual) after antigen challenge as the provocating dose of carbachol which increased SRL by 400% (PD400). In acute responders, SRL increased by 219% with antigen challenge and PD400 decreased by 55%. Inhaled D-propranolol had no effect on baseline SRL, but inhibited ABR in a dose dependent manner.

[3] = system: allergic sheep; experiment: Antigen-induced bronchoconstriction (early and late phase SRL), dual responder sheep; assay type: in vivo; details: dual responders
Description: Data was expressed as specific resistance, SRL.

[4] = system: allergic sheep; experiment: Antigen-induced airway hyperresponsiveness (AHR), PD400 of carbachol, acute responder sheep; assay type: in vivo; details: acute responders; for inhibition of AHR (PD400): 2 hours after antigen, FIG. 7
Protocol: as §1, §2

[5] = inhaled, FIG. 18 (legend: 10 mg/kg)

SMILES: CC(C)NC[C@@H](O)COc1cccc2ccccc12 [D-propranolol]
- allergic bronchoconstriction after antigen challenge ([1]; Example I, acute responders (n=5), aerosol 10 mg in 4 mL PBS one hour before antigen, FIG. 1): significant inhibition of allergic bronchoconstriction
- percentage change in SRL after antigen stimulation vs control ([1]; Example I, acute responders (n=5), aerosol 10 mg in 4 mL PBS, P<0.05, FIG. 2): significantly less change in SRL
- inhibition of ABR ([1]; acute responders, inhaled, 5 mg dose): 37%
- inhibition of ABR ([1]; acute responders, inhaled, 10 mg dose, P<0.05): 68%
- inhibition of ABR ([1]; acute responders, inhaled, 20 mg dose): 44%
- effect on ABR (change in SRL) ([1]; acute responders, oral, 5 mg/kg, FIG. 10): effects ABR
- effect on baseline SRL ([1]; in vivo): had no effect
- inhibition of AHR (PD400) ([2]; inhaled, 5 mg dose, 24 hours after antigen, P<0.05, FIG. 13): 44%
- effect on AHR ([2]; inhaled, 10 mg dose, FIG. 15): effected
- effect on AHR ([2]; oral, 5 mg/kg, FIG. 17): effected AHR
- attenuation of early phase ([3]; inhaled, 5 mg dose, FIG. 12): 35%
- attenuation of late phase ([3]; inhaled, 5 mg dose, FIG. 12): 21%
- effect on ABR ([3]; inhaled, 10 mg dose, FIG. 14): effected ABR
- effect on early phase ([3]; oral, 5 mg/kg, FIG. 16): significantly effected the early phase
- effect on late phase response ([3]; oral, 5 mg/kg, FIG. 16): may even remove the late phase response
- airway responsiveness (PD400) after antigen ([4]; Example I, inhaled 10 mg in 4 mL PBS, P=NS, FIG. 4): maintained the airway responsiveness levels at the baseline
- inhibition of AHR (PD400) ([4]; inhaled, 5 mg dose): 30%
- inhibition of AHR (PD400) ([4]; inhaled, 10 mg dose): 50%
- inhibition of AHR (PD400) ([4]; inhaled, 20 mg dose, P<0.05 vs post-antigen): 75%
- effect on AHR (change in PD400) ([4]; oral, 5 mg/kg, FIG. 11): effects

SMILES: CC(C)NC[C@H](O)COc1cccc2ccccc12 [L-propranolol, reference compound]
- change in SRL after antigen challenge ([1]; acute responders, inhaled, 10 mg dose, FIG. 8): 209%
- effect on PD400 ([2]; inhaled, 24 hours after antigen, FIG. 19 (legend: 10 mg/kg)): had no effect
- effect on antigen-induced responses [3, 5]: ineffective
- peak early change in SRL [3, 5]: 351%
- peak late SRL [3, 5]: 175%
- AHR response (PD400) ([4]; inhaled, 10 mg dose, FIG. 9): no difference between the post antigen and L-propranolol responses
